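These data come from cells grown in 96-well plates and exposed to compound for 48 hours at five concentrations. Here, GI50 denotes the concentration required for 50% inhibition of growth. The concentration for full growth arrest is given as TGI.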
Experiments:
Assay in all cases: NCI tumour cell line growth inhibition, 48 h; in the data active = GI50 below about 0.43 µM; inactive = the rest
[1] = test system: NCI-H226 lung
[2] = test system: U251 CNS
[3] = test system: SNB-19 CNS
[4] = test system: OVCAR-3 ovarian
[5] = test system: OVCAR-4 ovarian
[6] = test system: HCT-15 colon
[7] = test system: EKVX NSCLC
[8] = test system: SF-268 CNS
[9] = test system: MDA-MB-231 breast

COc1ccc(N2C(=O)C(=O)C3(CCCCC3)C2=O)c(OC)c1OC
> 100 µM: TGI [1] | TGI [2] | TGI [3] | TGI [4] | TGI [5] | TGI [6] | TGI [7] | TGI [8]

CCN(CCN(CC)C(=O)NC)C(=O)NC
> 100 µM: TGI [1] | TGI [2] | TGI [3] | TGI [6] | TGI [7] | TGI [8] | TGI [9]

Cc1sc2nc3n(c(=O)c2c1C)N=C(c1ccccc1)CS3
> 100 µM: TGI [1] | TGI [2] | TGI [4] | TGI [5] | TGI [6] | TGI [7] | TGI [8] | TGI [9]

COc1cccc(/C=N/NC(=O)CN(C)C)c1O
> 100 µM: TGI [1] | TGI [2] | TGI [3] | TGI [4] | TGI [5] | TGI [6] | TGI [7] | TGI [8]

CCOC(=O)[C@H](CO)Nc1c(O)c2c(c(O)c1Cl)C(=O)C=CC2=O
> 10 µM: TGI [1] | TGI [2] | TGI [3] | TGI [4] | TGI [5] | TGI [6] | TGI [7] | TGI [8] | TGI [9]

Cc1ccc(Cc2n[nH]c(=O)n2N2C(=O)c3ccccc3C2=O)cc1
> 100 µM: TGI [1] | TGI [2] | TGI [3] | TGI [4] | TGI [5] | TGI [6] | TGI [7] | TGI [9]

COC(=O)[C@@H](NC(=O)c1ccc(CNC(=O)/C(C)=C/c2ccccc2)cc1)C(C)C
> 100 µM: TGI [1] | TGI [2] | TGI [3] | TGI [4] | TGI [5] | TGI [6] | TGI [7] | TGI [8] | TGI [9]

COc1ccc(Oc2nc3c(N)cc(C(F)(F)F)cc3nc2-c2ccccc2)cc1
> 100 µM: TGI [2] | TGI [3] | TGI [5] | TGI [6] | TGI [9]
64.5 µM: TGI [8]
35.7 µM: TGI [1]
28.9 µM: TGI [7]

O=C(NCCCc1cn[nH]c(=O)n1)c1cccc2nc3ccccc3nc12
> 100 µM: TGI [1] | TGI [2] | TGI [3] | TGI [4] | TGI [5] | TGI [6] | TGI [7] | TGI [8] | TGI [9]

COc1cc(O)c2c(=O)c(OC)c(-c3ccc(OC)c(OC)c3)oc2c1.[Sn]
> 100 µM: TGI [1] | TGI [3] | TGI [4] | TGI [5] | TGI [7] | TGI [8] | TGI [9]
inactive: GI50 [3] > 100 µM | GI50 [4] > 100 µM | GI50 [5] 8.24 µM | GI50 [7] > 100 µM | GI50 [8] > 100 µM | GI50 [9] > 100 µM

CN(C)C=Nc1c2c(nc3ccccc13)CCCC2
> 100 µM: TGI [1] | TGI [2] | TGI [3] | TGI [4] | TGI [5] | TGI [6] | TGI [7] | TGI [8] | TGI [9]

COc1cc(C2c3cc4c(cc3OC(NNc3ccccc3)C2C)OCO4)cc(OC)c1O (stereo not drawn)
38.2 µM: TGI [5]
27.4 µM: TGI [8]
16.3 µM: TGI [2]
8.53 µM: TGI [9]
69.9 µM: TGI [7]
14.6 µM: TGI [1]
14.8 µM: TGI [4]
32.5 µM: TGI [3]
11.9 µM: TGI [6]

CC(=O)CC12NC(=O)N(C)N=C1N(C)C(=O)N(C)C2=O (stereo not drawn)
> 100 µM: TGI [1] | TGI [2] | TGI [4] | TGI [5] | TGI [6] | TGI [7] | TGI [8] | TGI [9]

COc1ccc(C=NCCCN=Cc2ccc(OC)cc2O)c(O)c1
59.3 µM: TGI [1]
51.2 µM: TGI [4]
> 100 µM: TGI [2] | TGI [3] | TGI [5] | TGI [6] | TGI [7] | TGI [9]

CCOC(=O)[C@@]12NN=N[C@@H]1[C@H]1CO[C@H](c3ccccc3)N1C2=O
24.5 µM: TGI [4]
30.6 µM: TGI [9]
28.8 µM: TGI [7]
32.4 µM: TGI [5]
30.8 µM: TGI [8]
32.9 µM: TGI [6]
18.4 µM: TGI [2]
25 µM: TGI [3]

CCc1n[nH]c(=O)n1N=C(c1ccccc1)c1ccccc1
93.3 µM: TGI [7]
> 100 µM: TGI [1] | TGI [2] | TGI [3] | TGI [4] | TGI [5] | TGI [6] | TGI [8] | TGI [9]

Cc1ccc(O)cc1 (tested in a mixture with another compound)
> 100 µM: TGI [1] | TGI [2] | TGI [3] | TGI [4] | TGI [5] | TGI [6] | TGI [7] | TGI [8] | TGI [9]

Cc1csc2c(=O)n(COCc3ccccc3)c(=O)[nH]c12
> 100 µM: TGI [1] | TGI [2] | TGI [3] | TGI [4] | TGI [5] | TGI [7] | TGI [8] | TGI [9]

O=C(c1cccnc1)N1N=C(c2ccc3c(c2)OCO3)CC1(O)c1cc(F)c(Cl)cc1Cl (stereo not drawn)
> 100 µM: TGI [3] | TGI [5]
64.5 µM: TGI [7]
49.8 µM: TGI [8]
42.5 µM: TGI [6]
26.3 µM: TGI [4]
32.9 µM: TGI [2]
33.3 µM: TGI [1]
40.5 µM: TGI [9]

Cc1cc2c(cc1-c1cc3c(cc1C)C(C(C)C)=C(O)C(=O)/C3=C\Nc1ccccn1)/C(=C/Nc1ccccn1)C(=O)C(O)=C2C(C)C
77.8 µM: TGI [1]
> 100 µM: TGI [2] | TGI [3] | TGI [4] | TGI [5] | TGI [6] | TGI [7] | TGI [8] | TGI [9]

CC(=O)OC12OC(C)(C3C(=O)N(c4ccccc4)C(=O)C31)N(c1ccccc1)C2=O (stereo not drawn)
> 100 µM: TGI [1] | TGI [2] | TGI [3] | TGI [4] | TGI [5] | TGI [6] | TGI [7] | TGI [8] | TGI [9]

O=C1[C@H](O)[C@@H]2CCC[C@@]23CCCN13
> 100 µM: TGI [1] | TGI [2] | TGI [4] | TGI [6] | TGI [7] | TGI [8]

CCC1OC2C(CC=C(C)C)=C3OC(C)(O)C(C)(CC)C(=O)C3=C3OC(=O)C=C1C32 (stereo not drawn)
41.1 µM: TGI [9]
> 100 µM: TGI [1] | TGI [2] | TGI [3] | TGI [5] | TGI [6] | TGI [7] | TGI [8]

CC(=O)N1CCN(CCCCN2c3ccccc3Sc3cc(N=[N+]=[N-])ccc32)CC1
29.6 µM: TGI [3]
39.1 µM: TGI [8]
35.5 µM: TGI [1]
25.3 µM: TGI [4]
28.1 µM: TGI [6]
32.7 µM: TGI [7]
26.7 µM: TGI [9]
27.6 µM: TGI [2]

CC(C)(CO)NC(=O)c1cccs1
> 100 µM: TGI [2] | TGI [3] | TGI [4] | TGI [5] | TGI [6] | TGI [7] | TGI [8] | TGI [9]

N#CCN1CCCN(CC#N)CCN(CC#N)CCCN(CC#N)CC1
> 100 µM: TGI [1] | TGI [2] | TGI [3] | TGI [4] | TGI [5] | TGI [8] | TGI [9]

Cn1c(=O)oc2cc(C(=S)N3CCCCC3)ccc21
> 100 µM: TGI [1] | TGI [2] | TGI [3] | TGI [4] | TGI [6] | TGI [7] | TGI [8] | TGI [9]

CCSc1[nH]c(NC(=NC(C)C)NC(=O)c2ccccc2)c(C(N)=O)c1C(N)=O
> 10 µM: TGI [5] | TGI [6] | TGI [7] | TGI [8] | TGI [9]

O=C1C(=O)N(C23CC4CC(CC(C4)C2)C3)C(=S)N1c1ccccc1
> 100 µM: TGI [1] | TGI [2] | TGI [3] | TGI [5] | TGI [6] | TGI [7] | TGI [8] | TGI [9]

CNC(=O)c1cc(Oc2cccc3nc(NC(=O)Nc4ccc(F)cc4F)ccc23)ccn1
inactive: GI50 [8] 1.9 µM | GI50 [9] 1.59 µM
active: GI50 [6] 0.302 µM
> 50 µM: TGI [6] | TGI [8] | TGI [9]

O=C(NCCC1CN(S(=O)(=O)C(F)(F)F)c2ccccc21)OCc1ccccc1 (stereo not drawn)
> 100 µM: TGI [2] | TGI [3] | TGI [4] | TGI [5] | TGI [6] | TGI [7] | TGI [8] | TGI [9]

CCOC(=O)C1=C(C)N(c2ccc(Cl)cc2)C2(O)C=CC(Nc3ccc(Cl)cc3)=C3C(=O)N(c4ccccc4)C(=O)C312 (stereo not drawn)
20.1 µM: TGI [8]
16.3 µM: TGI [6]
35.2 µM: TGI [9]
52.3 µM: TGI [3]
15.1 µM: TGI [5]
2.09 µM: TGI [4]
39.5 µM: TGI [2]

CCOC(=O)CCC(C(=O)OCC)n1nnc2ccc(Nc3c(C)[n+]([O-])c4cc(F)c(OCC)cc4[n+]3[O-])cc21 (stereo not drawn)
> 100 µM: TGI [1] | TGI [2] | TGI [3] | TGI [5] | TGI [6] | TGI [7] | TGI [8]
67.4 µM: TGI [4]

COc1c(C)c(C/C=C(\C)CCCCO)c(OC)c2ccccc12
> 100 µM: TGI [2] | TGI [3] | TGI [4] | TGI [5] | TGI [6] | TGI [7] | TGI [8] | TGI [9]

COC1=CC(c2ccc[nH]2)=N/C1=C\c1[nH]c(C)c(C)c1CCC(=O)OCc1ccccc1
4.43 µM: TGI [5]
1.18 µM: TGI [6]
1.52 µM: TGI [2]
14 µM: TGI [3]
inactive: GI50 [3] 0.676 µM
2.92 µM: TGI [8]
2.46 µM: TGI [1]
active: GI50 [1] 0.377 µM | GI50 [2] 0.322 µM | GI50 [4] 0.304 µM | GI50 [5] 0.246 µM | GI50 [6] 0.305 µM | GI50 [7] 0.281 µM | GI50 [8] 0.369 µM
1.35 µM: TGI [4]
1.9 µM: TGI [7]

Source: PubChem BioAssay (NCI)
